The values that follow come from patent publication US10294207B2, “Pyrazole derivatives as TNIK, IKKϵ and TBK1 inhibitor and pharmaceutical composition comprising same” (GREEN CROSS CORPORATION, priority 2015, dated 2019).

The assay has as its target T1, TBK1 (Homo sapiens, UniProt Q9UHD2).
T1 construct: purchased Promega V3991
T1 sequence (Q9UHD2 1-729): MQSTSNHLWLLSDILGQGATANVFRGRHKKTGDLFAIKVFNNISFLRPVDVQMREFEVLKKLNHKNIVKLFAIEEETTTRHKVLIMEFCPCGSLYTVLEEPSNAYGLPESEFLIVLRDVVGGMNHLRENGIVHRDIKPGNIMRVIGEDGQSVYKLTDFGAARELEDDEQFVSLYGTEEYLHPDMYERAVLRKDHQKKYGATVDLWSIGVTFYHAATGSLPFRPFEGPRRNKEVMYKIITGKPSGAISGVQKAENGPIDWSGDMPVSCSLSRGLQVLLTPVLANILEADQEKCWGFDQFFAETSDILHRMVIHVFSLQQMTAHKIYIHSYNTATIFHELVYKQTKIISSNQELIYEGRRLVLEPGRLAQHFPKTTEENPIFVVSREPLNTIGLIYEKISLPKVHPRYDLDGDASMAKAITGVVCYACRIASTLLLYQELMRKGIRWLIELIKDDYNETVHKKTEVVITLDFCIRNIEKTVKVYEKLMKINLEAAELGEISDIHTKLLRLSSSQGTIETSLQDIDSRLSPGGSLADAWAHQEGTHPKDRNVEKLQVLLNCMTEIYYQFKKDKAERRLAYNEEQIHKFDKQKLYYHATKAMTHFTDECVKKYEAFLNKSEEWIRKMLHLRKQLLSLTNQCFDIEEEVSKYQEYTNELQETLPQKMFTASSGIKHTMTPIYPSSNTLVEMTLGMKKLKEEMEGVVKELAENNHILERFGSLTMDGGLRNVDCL
Nature of the assay: TBK1 inhibition, ADP-Glo Kinase Assay. It counts as biochemical. Particulars: luminometer. The procedure:
Inhibition activities on TNIK, IKKε and TBK1 were evaluated using the compounds of Examples 1 to 254.
The inhibition activities on TNIK, IKKε and TBK1 were measured by a luminometer, TNIK/IKKε/TBK1 Kinase Enzyme System (Promega, Ca# V4158; Invitrogen, PR8031B, Promega, Ca# V3991) and ADP-Glo Kinase Assay using ADP-Glo™ Kinase Analysis Kit (Promega, Ca# V9101) and a kinase reaction buffer [40 mM Tris(pH 7.5), 20 mM MgCl2, 0.1 mg/mL BSA] in accordance with the manufacturer's protocol.

Where a name gives a salt, the structure may show the parent alone.

The IC50 is the concentration that gives 50% inhibition. High values mean a need for much substance, low ones inhibition by little substance. `O=C(NCc1cccs1)c1ccc2[nH]nc(NC(=O)c3ccc(NC4CCCCCC4)cc3)c2c1` [Example 164, 3-(4-(Cycloheptylamino)benzamido)-N-(thiophen-2-ylmethyl)-1H-indazole-5-carboxamide] displayed an IC50 of 5.6 µM.

`O=C(Nc1n[nH]c2ccc(CNCc3cccs3)cc12)c1ccc(F)cc1` [Example 31, 4-Fluoro-N-(5-(((thiophen-2-ylmethyl)amino)methyl)-1H-indazol-3-yl)benzamide Hydrochloride]: the IC50 was over 10 µM.

On to `CCC(NC(=O)c1ccc2[nH]nc(NC(=O)c3ccc(F)cc3)c2c1)c1cccs1` (stereo not drawn) [Example 17, 3-(4-Fluorobenzamido)-N-(1-(thiophen-2-yl)propyl)-1H-indazole-5-carboxamide], for which the IC50 is 0.013 µM.

On to `O=C1CC(C(=O)Nc2ccc(C(=O)Nc3n[nH]c4ccc(C(=O)NCc5cccs5)cc34)cc2)C1` [Example 208, 3-(4-(3-Oxocyclobutanecarboxamido)benzamido)-N-(thiophen-2-ylmethyl)-1H-indazole-5-carboxamide], for which 0.027 µM corresponded to half-maximal inhibition (IC50).

In turn, `O=C(NCc1cccs1)c1ccc2[nH]nc(NC(=O)c3ccc([N+](=O)[O-])cc3)c2c1` [Example 203, 3-(4-Nitrobenzamido)-N-(thiophen-2-ylmethyl)-1H-indazole-5-carboxamide] showed an IC50 of 0.075 µM.

Turning to `O=C(NCc1cccs1)c1ccc2[nH]nc(NC(=O)c3ccc(NC(=O)C4(C(F)(F)F)CC4)cc3)c2c1` [Example 207, N-(Thiophen-2-ylmethyl)-3-(4-(1-(trifluoromethyl)cyclopropanecarboxamido)benzamido)-1H-indazole-5-carboxamide], the IC50 worked out at 0.038 µM.

In turn, `O=C(NCc1cccs1)c1ccc2[nH]nc(NC(=O)c3ccc(NCCC4CCOCC4)cc3)c2c1` [Example 160, 3-(4-((2-(Tetrahydro-2H-pyran-4-yl)ethyl)amino)benzamido)-N-(thiophen-2-ylmethyl)-1H-indazole-5-carboxamide] registered an IC50 of 0.0054 µM.

Turning to `O=C(NCc1cccs1)c1ccc2[nH]nc(NC(=O)c3ccc(NC4CCCCC4)cc3)c2c1` [Example 162, 3-(4-(Cyclohexylamino)benzamido)-N-(thiophen-2-ylmethyl)-1H-indazole-5-carboxamide], the IC50 turned out to be 0.08 µM.

In the case of `O=C(NCc1cccs1)c1ccc2[nH]nc(NC(=O)c3ccc(F)cc3)c2c1` [Example 36, 3-(4-Fluorobenzamido)-N-(thiophen-2-ylmethyl)-1H-indazole-5-carboxamide], half-maximal inhibition (IC50) required 0.089 µM.

In the case of `O=C(NCc1cccs1)c1ccc2[nH]nc(NC(=O)c3ccc(O)cc3)c2c1` [Example 200, 3-(4-Hydroxybenzamido)-N-(thiophen-2-ylmethyl)-1H-indazole-5-carboxamide], half-maximal inhibition (IC50) required 0.093 µM.

`COc1ccc(C(=O)Nc2n[nH]c3ccc(-c4ccc(CN5CCOCC5)s4)cc23)cc1` [Example 12, 4-Methoxy-N-(5-(5-(morpholinomethyl)thiophen-2-yl)-1H-indazol-3-yl)benzamide] came in with an IC50 of 0.43 µM.

Compound `O=C(NCc1cccs1)c1ccc2[nH]nc(NS(=O)(=O)c3ccccc3)c2c1` [Example 39, 3-(Phenylsulfonamido)-N-(thiophen-2-ylmethyl)-1H-indazole-5-carboxamide] gave an IC50 of over 10 µM.

Regarding `O=C(NCc1cccs1)c1ccc2[nH]nc(NC(=O)c3ccccc3)c2c1` [Example 13, 3-Benzamido-N-(thiophen-2-ylmethyl)-1H-indazole-5-carboxamide], half-maximal inhibition (IC50) required 0.036 µM.

For the compound `O=C(NCc1cccs1)c1ccc2[nH]nc(NC(=O)c3ccc(NC4CCCC4)cc3)c2c1` [Example 163, 3-(4-(Cyclopentylamino)benzamido)-N-(thiophen-2-ylmethyl)-1H-indazole-5-carboxamide], the IC50 was found to be 0.036 µM.

As to `O=C(NCc1ccncc1)c1ccc2[nH]nc(NC(=O)c3ccc(N4CCOCC4)cc3)c2c1` [Example 120, 3-(4-Morpholinobenzamido)-N-(pyridin-4-ylmethyl)-1H-indazole-5-carboxamide], the IC50 is 0.019 µM.
